Measured values from patent publication US20030114492A1, “Method of using neurotrophic sulfonamide compounds” (priority 1997, published 2003).

What was measured:
[1] = system: TH-positive dopaminergic neurons in the striatum; assay: MPTP model of Parkinson's Disease, TH immunostaining of striatum; type: in vivo; settings: MPTP-lesioned CD1 mice (30 mg/kg i.p. for 5 days), compound 4 mg/kg s.c. for 10 days, striatum at 18 days
Description: MPTP lesioning of dopaminergic neurons in mice was used as an animal model of Parkinson's Disease. Four week old male CD1 white mice were dosed i.p. with 30 mg/kg of MPTP for 5 days. Test compounds (4 mg/kg), or vehicle, were administered s.c. along with the MPTP for 5 days, as well as for an additional 5 days following cessation of MPTP treatment. At 18 days following MPTP treatment, the animals were sacrificed and the striata were dissected and perfusion-fixed. Immunostaining was performed on saggital and coronal brain sections using anti-tyrosine hydroxylase […] to quantitate survival and recovery of dopaminergic neurons. In animals treated with MPTP and vehicle, a substantial loss of functional dopaminergic terminals was observed as compared to non-lesioned animals.

[2] = target: FKBP12 (Homo sapiens, UniProt P62942); assay: Ki test procedure: inhibition of peptidyl-prolyl isomerase (rotamase) activity, chymotrypsin-coupled assay; type: biochemical; settings: apparent Ki, rotamase activity of FKBP, substrate N-succinyl-Ala-Ala-Pro-Phe-p-nitroanilide
Text: The inhibition of the prolyl peptidyl cis-trans isomerase activity of FKBP may be measured as an indicator of this affinity.
Inhibition of the peptidyl-prolyl isomerase (rotamase) activity of the inventive compounds can be evaluated by known methods described in the literature (Harding, et al., Nature, 1989, 341:758-760; Holt et al. J. Am. Chem. Soc., 115:9923-9938). These values are obtained as apparent Ki's and are presented in Table I. The cis-trans isomerization of an alanine-proline bond in a model substrate, N-succinyl-Ala-Ala-Pro-Phe-p-nitroanilide, is monitored spectrophotometrically in a chymotrypsin-coupled assay, which releases para-nitroanilide from the trans form of the substrate. The inhibition of this reaction caused by the addition of different concentrations of inhibitor is determined, and the data is analyzed as a change in first-order rate constant as a function of inhibitor concentration to yield the apparent Ki values.
In a plastic cuvette are added […] of ice cold assay buffer (25 mM HEPES, pH 7.8, 100 mM NaCl), […] of FKBP (2.5 mM in 10 mM Tris-Cl pH 7.5, 100 mM NaCl, 1 mM dithiothreitol), […] of chymotrypsin (50 mg/ml in 1 mM HCl) and […] of test compound at various concentrations in dimethyl sulfoxide. The reaction is initiated by the addition of 5 mL of substrate (succinyl-Ala-Phe-Pro-Phe-para-nitroanilide, 5 mg/mL in 2.35 mM LiCl in trifluoroethanol).
The absorbance at 390 nm versus time is monitored for 90 seconds using a spectrophotometer and the rate constants are determined from the absorbance versus time data files.

[3] = system: chick dorsal root ganglia; assay: Chick dorsal root ganglion cultures and neurite outgrowth; type: cell-based; settings: Gallus gallus, 48 h; read-out: ED50 (the source's name)
Description: Dorsal root ganglia were dissected from chick embryos of ten day gestation. Whole ganglion explants were cultured on thin layer Matrigel-coated 12 well plates with Liebovitz L15 plus high glucose media supplemented with 2 mM glutamine and 10% fetal calf serum, and also containing 10 μM cytosine β-D arabinofuranoside (Ara C) at 37° C. in an environment containing 5% CO2. Twenty-four hours later, the DRGs were treated with various immunophilin ligands. Forty-eight hours after drug treatment, the ganglia were visualized under phase contrast or Hoffman Modulation contrast with a Zeiss Axiovert inverted microscope. Photomicrographs of the explants were made, and neurite outgrowth was quantitated. Neurites longer than the DRG diameter were counted as positive, with total number of neurites quantitated per each experimental condition. Three to four DRGs are cultured per well, and each treatment was performed in duplicate.
The data for these experiments for representative compounds are presented in the “ED50” column of Table I.

Chain of FKBP12 (P62942 whole entry, species assumed): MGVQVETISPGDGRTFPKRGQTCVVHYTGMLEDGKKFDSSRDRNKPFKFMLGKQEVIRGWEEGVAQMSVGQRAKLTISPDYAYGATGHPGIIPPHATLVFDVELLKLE

Structure (SMILES)	% Rescue, TH Immunostaining at 4 mg/kg, s.c. [1]	Ki [2]	EC50 [3]
O=C(OCCCCc1ccccc1)C1CCCCN1S(=O)(=O)c1ccccc1 (stereo not drawn) [4-phenyl-1-butyl-N-(benzenesulfonyl) pipecolate]	29.22%		
O=C(OCCCc1cccnc1)[C@@H]1CCCN1S(=O)(=O)Cc1ccccc1 [Compound 1, 3-(3-Pyridyl)-1-propyl(2S)-N-(α-toluenesulfonyl)pyrrolidine-2-carboxylate]	44.31%	72 nM	0.002 nM
O=C(OCCCCc1ccccc1)C1CCCCN1S(=O)(=O)Cc1ccccc1 (stereo not drawn) [Compound 2, 4-Phenyl-1-butyl 1-(α-tolylsulfonyl)-2-pipecolinate]	38.00%	34 nM	0.031 nM
O=C(OC(CCc1ccccc1)CCc1ccccc1)C1CCCCN1S(=O)(=O)Cc1ccccc1 (stereo not drawn) [Compound 3, 1,5-Diphenyl-3-pentyl N-(α-toluenesulfonyl)-pipecolate]		107 nM	0.133 nM
